Assay results from paper PMC11995724, “Antibiotic target discovery by integrated phenotypic and activity-based profiling of electrophilic fragments” (Cell chemical biology, 2025).
Counter-ions that a name gives are not always drawn.

Assay: in vitro
Details: human, hek293t cells

In order of falling viability at 48 h, 25 µM:
1. C=CC(=O)N1CCC[C@H]1c1ccon1 [2-G03, 1-[(2S)-2-(1,2-oxazol-3-yl)pyrrolidin-1-yl]prop-2-en-1-one]  181%
2. C=CC(=O)NC1CCc2nc(CC)nn2C1 (centres unmarked) [1-G22, N-{2-ethyl-5H,6H,7H,8H-[1,2,4]triazolo[1,5-a]pyridin-6-yl}prop-2-enamide]  147%
3. CC(Cl)C(=O)N1Cc2ccoc2CC(C)(C)C1 (centres unmarked) [5-P21, 2-chloro-1-{7,7-dimethyl-4H,5H,6H,7H,8H-furo[3,2-c]azepin-5-yl}propan-1-one]  132%
4. CC(C)(C)c1ccc(C=C(C#N)C(=O)Nc2ccc(C(=O)O)cc2)cc1 [9-I21, 4-[3-(4-tert-butylphenyl)-2-cyanoprop-2-enamido]benzoic acid]  128%
5. CC(Cl)C(=O)NC(=O)NCc1ccccc1 (centres unmarked) [6-P06, 1-benzyl-3-(2-chloropropanoyl)urea]  123%
6. Cc1cc(C)c(NC(=O)C(C#N)=Cc2cccnc2)c(C)c1 [8-B17, 2-cyano-3-(pyridin-3-yl)-N-(2,4,6-trimethylphenyl)prop-2-enamide]  122%
7. CC(Cl)C(=O)NC1CC=CCC1 (centres unmarked) [6-K21, 2-chloro-N-(cyclohex-3-en-1-yl)propanamide]  114%
8. CCOc1cc(C=C(C#N)C(=O)Nc2cccc(C)c2)ccc1O [9-G06, 2-cyano-3-(3-ethoxy-4-hydroxyphenyl)-N-(3-methylphenyl)prop-2-enamide]  105%
9. COc1ccc(NC(=O)C(C#N)=Cc2ccc(-c3ccccc3)cc2)cc1 [8-D11, 3-{[1,1'-biphenyl]-4-yl}-2-cyano-N-(4-methoxyphenyl)prop-2-enamide]  103%
10. CCc1cccc(CC)c1NC(=O)CCl [4-F10, 2-chloro-N-(2,6-diethylphenyl)acetamide]  99.1%
11. CCOc1ccc(C=C(C#N)C(=O)Nc2nccs2)cc1 [9-C06, 2-cyano-3-(4-ethoxyphenyl)-N-(1,3-thiazol-2-yl)prop-2-enamide]  94.3%
12. C=CC(=O)NC1CC2CCC(C1)N2S(C)(=O)=O (centres unmarked) [2-A18, N-{8-methanesulfonyl-8-azabicyclo[3.2.1]octan-3-yl}prop-2-enamide]  93.8%
13. CC(Cl)C(=O)Nc1c(C(C)C)cccc1C(C)C (centres unmarked) [4-B15, N-[2,6-bis(propan-2-yl)phenyl]-2-chloropropanamide]  93.3%
14. C=CC(=O)NCCC(=O)N1CCN(c2nc(C)cs2)C(C)C1 (centres unmarked) [2-F06, N-{3-[3-methyl-4-(4-methyl-1,3-thiazol-2-yl)piperazin-1-yl]-3-oxopropyl}prop-2-enamide]  92.9%
15. O=C(CCl)NCC(c1nccs1)N1CCCC1 (centres unmarked) [6-D11, 2-chloro-N-[2-(pyrrolidin-1-yl)-2-(1,3-thiazol-2-yl)ethyl]acetamide hydrochloride]  92.9%
16. COc1cc([N+](=O)[O-])ccc1NC(=O)C(C)Cl (centres unmarked) [4-K12, 2-chloro-N-(2-methoxy-4-nitrophenyl)propanamide]  91.3%
17. N#CC(=Cc1ccc(-c2ccc(Cl)cc2)o1)C(=O)NC1CC1 [9-K16, 3-[5-(4-chlorophenyl)furan-2-yl]-2-cyano-N-cyclopropylprop-2-enamide]  91%
18. C=CC(=O)NCCc1csc(-c2ccccc2)n1 [1-A13, N-[2-(2-phenyl-1,3-thiazol-4-yl)ethyl]prop-2-enamide]  88.5%
19. O=C(CCl)Nc1ccc(C(F)(F)F)cc1[N+](=O)[O-] [4-N08, 2-chloro-N-[2-nitro-4-(trifluoromethyl)phenyl]acetamide]  87.1%
20. CC(Cl)C(=O)Nc1sccc1C(N)=O (centres unmarked) [5-C21, 2-(2-chloropropanamido)thiophene-3-carboxamide]  85.4%
21. CC1CCCN(C(=O)C(NC(=O)C(C)Cl)c2cnn(C)c2)C1 (centres unmarked) [7-G12, 2-chloro-N-[1-(1-methyl-1H-pyrazol-4-yl)-2-(3-methylpiperidin-1-yl)-2-oxoethyl]propanamide]  81.1%
22. C=CC(=O)N1CCC(O)(c2ccccc2)CC1 [1-E15, 1-(4-hydroxy-4-phenylpiperidin-1-yl)prop-2-en-1-one]  79.8%
23. C=CC(=O)NC(Cc1nc(C)no1)c1ccccc1 (centres unmarked) [1-B22, N-[2-(3-methyl-1,2,4-oxadiazol-5-yl)-1-phenylethyl]prop-2-enamide]  68.5%
24. C=CC(=O)NC1(c2nc(C3CC3)cc(=O)[nH]2)CCCCC1 [3-H13, N-[1-(4-cyclopropyl-6-oxo-1,6-dihydropyrimidin-2-yl)cyclohexyl]prop-2-enamide]  68.3%
25. Cn1ccnc1C(=O)CCl [10-C15, 2-chloro-1-(1-methyl-1H-imidazol-2-yl)ethan-1-one]  67.6%
26. C=CC(=O)N(C)CC(=O)N1CCCc2ccccc21 [3-D15, N-methyl-N-[2-oxo-2-(1,2,3,4-tetrahydroquinolin-1-yl)ethyl]prop-2-enamide]  65.7%
27. C=CC(=O)Nc1cnn(-c2ccccc2)c1C(F)F [3-I03, N-[5-(difluoromethyl)-1-phenyl-1H-pyrazol-4-yl]prop-2-enamide]  41.7%
28. C=CC(=O)NCCC(=O)N1CCC(C)(C)S(=O)(=O)CC1 [3-G19, N-[3-(7,7-dimethyl-1,1-dioxo-1lambda6,4-thiazepan-4-yl)-3-oxopropyl]prop-2-enamide]  41.2%
29. C=CC(=O)N1CCOC(Cn2nc(C)cc2C)C1 (centres unmarked) [3-C13, 1-{2-[(3,5-dimethyl-1H-pyrazol-1-yl)methyl]morpholin-4-yl}prop-2-en-1-one]  40.5%
30. C=CC(=O)NCc1ccc(C(=O)N2CCN(C(C)=O)CC2)cc1 [3-G17, N-{[4-(4-acetylpiperazine-1-carbonyl)phenyl]methyl}prop-2-enamide]  32.9%
31. Cc1cc(C)c(NC(=O)C(C#N)=Cc2ccccc2)c(C)c1 [8-E19, 2-cyano-3-phenyl-N-(2,4,6-trimethylphenyl)prop-2-enamide]  29.4%
32. CN(CCNC(=O)CCl)S(=O)(=O)c1cccs1 [6-H11, 2-chloro-N-[2-(N-methylthiophene-2-sulfonamido)ethyl]acetamide]  11.1%
33. O=C(CCl)Cc1cc(Cl)cc(Cl)c1 [10-I15, 1-chloro-3-(3,5-dichlorophenyl)propan-2-one]  3.97%
34. CS(=O)(=O)N1CCC(N(CC(F)F)C(=O)CCl)CC1 [5-O12, 2-chloro-N-(2,2-difluoroethyl)-N-(1-methanesulfonylpiperidin-4-yl)acetamide]  1.77%
35. CN1C=CC(=C(C#N)C(=O)CCl)C=C1 [10-G21, 4-chloro-2-(1-methyl-1,4-dihydropyridin-4-ylidene)-3-oxobutanenitrile]  1.3%
36. Cc1ccc(CN(Cc2c(C)noc2C)C(=O)CCl)c(C)c1 [5-N03, 2-chloro-N-[(3,5-dimethyl-1,2-oxazol-4-yl)methyl]-N-[(2,4-dimethylphenyl)methyl]acetamide]  1.14%
37. Cc1cc(C(=O)CCl)c(C)n1-c1ccc(C(F)(F)F)cc1 [10-J14, 2-chloro-1-{2,5-dimethyl-1-[4-(trifluoromethyl)phenyl]-1H-pyrrol-3-yl}ethan-1-one]  0.425%
38. Cc1c(C#N)c(NC(=O)CCl)n(Cc2cccs2)c1C [4-C04, 2-chloro-N-{3-cyano-4,5-dimethyl-1-[(thiophen-2-yl)methyl]-1H-pyrrol-2-yl}acetamide]  0.255%
